Experiments:
Format in all cases: biochemical
GASC1 = biological target: T1, GASC1 (Homo sapiens, UniProt Q9H3R0); experiment: GASC1 demethylation assay on H3K9Me3 peptide (RapidFire HT-MS); details: read-out: GASC1 Inhibition
T1 construct: 6×His tagged recombinant GASC1 (N 350aa) was purified from E. Coli BL21(DE3); 6xHis; made in house; host or cells: E. coli BL21(DE3)
T1 sequence (Q9H3R0 1-350 limits assumed): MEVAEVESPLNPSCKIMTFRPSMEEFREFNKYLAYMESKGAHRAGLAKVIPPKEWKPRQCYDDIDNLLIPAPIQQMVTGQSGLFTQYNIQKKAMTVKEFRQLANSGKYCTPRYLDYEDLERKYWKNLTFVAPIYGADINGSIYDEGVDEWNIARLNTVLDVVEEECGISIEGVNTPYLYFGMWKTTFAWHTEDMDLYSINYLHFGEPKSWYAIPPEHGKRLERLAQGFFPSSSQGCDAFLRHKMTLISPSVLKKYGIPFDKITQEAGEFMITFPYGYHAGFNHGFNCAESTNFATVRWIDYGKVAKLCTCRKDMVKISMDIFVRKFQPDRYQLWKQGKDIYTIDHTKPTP
Experimental: 6×His tagged recombinant GASC1 (N 350aa) was purified from E. Coli BL21(DE3) to near homogeneity. The demethylation reaction buffer contained 50 mM TrisCl pH 7.5, 0.01% Triton X-100, 5% glycerol, 1 mM ascorbate (Cat# A4034, Sigma Aldrich), 5 μM α-ketoglutarate (# K2010, Sigma Aldrich) and 20 μM Fe2(NH4)2(SO4)2 (Cat# F1543, Sigma Aldrich). In 25 μL demethylation reaction system, 400 nM recombinant GASC1 and 20 μM H3K9me3 peptide (1-21 aa) were incubated with compounds for 10 minutes, and then α-ketoglutarate and Fe2(NH4)2(SO4)2 were added to initiate the reaction. All of the reactions were incubated for 45 minutes at room temperature, and then 25 μl of 1 N HCl was added to quench the reactions. After termination, plates were sealed and frozen at −80° C. and shipped on dry ice to BioTrove Inc. (Woburn, Mass.) for analysis.
All the reactions were read by RapidFire™ HT-MS platform developed in BioTrove Inc, and the method has been described in detail previously (Assay and Drug Development Technologies, 2004; 2(4): 373-381). Briefly, at BioTrove, plates were thawed and immediately analyzed using RapidFire™ system coupled to a Sciex API4000 triple quadrapole mass spectrometer. The samples were delivered directly from the plate to a clean-up cartridge (BioTrove column A) to remove nonvolatile assay components with 0.1% formic acid in a 3-sec wash cycle. The peptide substrate and demethylated product were coeluted to the mass spectrometer with 80% acetonitrile, 0.1% formic acid. Both the substrate and product signals were read at their +5 charge species, and the conversion from substrate to product is assessed by [H3K9me2 Read]/[H3K9me2 Read+H3K9me3 Read].

JARID1A = biological target: T2, JARID1A (Homo sapiens, UniProt P29375); experiment: JARID1A demethylase assay on H3K4Me3 peptide (RapidFire HT-MS)
T2 construct: FLAG tagged full length recombinant JARID1A and PLU1 proteins were purified from Sf9 insect cells; FLAG; made in house; host or cells: Sf9 insect cells
Experimental: (§1) FLAG tagged full length recombinant JARID1A and PLU1 proteins were purified from Sf9 insect cells to near homogeneity. The demethylation reaction buffer contained 50 mM TrisCl pH 7.5, 0.01% Triton X-100, 0.005% BSA, 1 mM ascorbate (Cat# A4034, Sigma Aldrich), 1.7 μM α-ketoglutarate (# K2010, Sigma Aldrich) and 20 μM Fe2(NH4)2(SO4)2 (Cat# F1543, Sigma Aldrich). In a 25 μL demethylation reaction system, 20 nM recombinant JARID1A or PLU1 proteins and 4 μM H3K4me3 peptide (1-21 aa), which can be biotinylated or unlabelled, were incubated with compounds for 10 minutes, and then α-ketoglutarate and Fe2(NH4)2(SO4)2 were added to initiate the reaction. All of the reactions were incubated for 45 minutes at room temperature, and then 25 μl of 1 N HCl was added to quench the reactions. After termination, plates were sealed and frozen at −80° C. for analysis.
(§2) All the reactions were read by RapidFire™ HT-MS platform developed in BioCius Inc, and described in detail (Assay and Drug Development Technologies, 2004; 2(4): 373-381). Briefly, plates were thawed and immediately analyzed using RapidFire™ system coupled to a Sciex API4000 triple quadrapole mass spectrometer. The samples were delivered directly from the plate to a clean-up cartridge (BioCius column A) to remove nonvolatile assay components with 0.1% formic acid in a 3-sec wash cycle. The peptide substrate and demethylated product were coeluted to the mass spectrometer with 80% acetonitrile, 0.1% formic acid. Both the substrate and product signals were read at their +5 charge species, and the conversion from substrate to product assessed by [H3K4me2 Read]/[H3K4me2 Read+H3K4me3 Read].

PLU-1 = biological target: T3, PLU-1 (Homo sapiens, UniProt Q9UGL1); experiment: PLU-1 demethylase assay on H3K4Me3 peptide (RapidFire HT-MS)
T3 construct: FLAG tagged full length recombinant JARID1A and PLU1 proteins were purified from Sf9 insect cells; FLAG; made in house; host or cells: Sf9 insect cells
Experimental: as §1, §2

T2 sequence (P29375 whole entry): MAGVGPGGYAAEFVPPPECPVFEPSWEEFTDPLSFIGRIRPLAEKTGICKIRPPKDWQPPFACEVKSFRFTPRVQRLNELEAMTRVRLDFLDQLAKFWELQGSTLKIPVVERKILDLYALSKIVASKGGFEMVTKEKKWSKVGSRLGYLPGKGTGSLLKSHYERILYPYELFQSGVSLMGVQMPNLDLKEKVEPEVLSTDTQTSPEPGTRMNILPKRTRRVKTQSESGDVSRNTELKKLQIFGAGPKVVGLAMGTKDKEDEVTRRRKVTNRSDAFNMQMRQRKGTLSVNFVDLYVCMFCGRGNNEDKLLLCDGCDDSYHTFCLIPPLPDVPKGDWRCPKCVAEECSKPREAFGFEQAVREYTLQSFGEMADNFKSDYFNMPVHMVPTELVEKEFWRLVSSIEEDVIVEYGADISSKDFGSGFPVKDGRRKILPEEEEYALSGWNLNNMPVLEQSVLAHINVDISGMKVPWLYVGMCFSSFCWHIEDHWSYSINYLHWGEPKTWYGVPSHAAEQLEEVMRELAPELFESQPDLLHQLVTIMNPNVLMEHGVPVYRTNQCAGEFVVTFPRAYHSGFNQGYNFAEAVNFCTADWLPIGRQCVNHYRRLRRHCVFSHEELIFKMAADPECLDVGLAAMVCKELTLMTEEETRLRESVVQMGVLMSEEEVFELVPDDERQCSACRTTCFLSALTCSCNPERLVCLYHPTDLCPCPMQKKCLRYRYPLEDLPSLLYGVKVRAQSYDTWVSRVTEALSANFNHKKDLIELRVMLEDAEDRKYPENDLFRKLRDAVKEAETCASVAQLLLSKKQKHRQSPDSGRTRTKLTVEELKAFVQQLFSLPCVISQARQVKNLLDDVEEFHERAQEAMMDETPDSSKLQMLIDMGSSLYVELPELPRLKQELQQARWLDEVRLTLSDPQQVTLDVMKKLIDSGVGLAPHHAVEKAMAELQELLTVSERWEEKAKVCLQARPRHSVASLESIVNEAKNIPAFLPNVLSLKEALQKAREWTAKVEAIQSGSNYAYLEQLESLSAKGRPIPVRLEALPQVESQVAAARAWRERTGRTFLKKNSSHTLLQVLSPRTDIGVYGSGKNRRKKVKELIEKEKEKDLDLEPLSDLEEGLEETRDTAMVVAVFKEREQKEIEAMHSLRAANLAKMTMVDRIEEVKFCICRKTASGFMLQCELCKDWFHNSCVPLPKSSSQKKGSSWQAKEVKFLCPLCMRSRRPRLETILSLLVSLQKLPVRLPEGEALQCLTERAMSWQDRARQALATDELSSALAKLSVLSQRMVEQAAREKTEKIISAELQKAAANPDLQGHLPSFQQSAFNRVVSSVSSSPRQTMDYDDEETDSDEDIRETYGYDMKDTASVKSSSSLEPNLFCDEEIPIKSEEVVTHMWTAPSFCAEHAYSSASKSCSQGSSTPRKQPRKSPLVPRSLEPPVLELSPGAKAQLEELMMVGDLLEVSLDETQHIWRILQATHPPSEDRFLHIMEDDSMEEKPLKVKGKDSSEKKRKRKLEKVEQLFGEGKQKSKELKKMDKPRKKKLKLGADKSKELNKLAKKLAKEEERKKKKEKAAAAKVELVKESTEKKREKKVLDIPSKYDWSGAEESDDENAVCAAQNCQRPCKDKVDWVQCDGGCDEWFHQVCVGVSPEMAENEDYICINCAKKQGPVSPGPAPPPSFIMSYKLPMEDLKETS
T3 sequence (Q9UGL1 whole entry): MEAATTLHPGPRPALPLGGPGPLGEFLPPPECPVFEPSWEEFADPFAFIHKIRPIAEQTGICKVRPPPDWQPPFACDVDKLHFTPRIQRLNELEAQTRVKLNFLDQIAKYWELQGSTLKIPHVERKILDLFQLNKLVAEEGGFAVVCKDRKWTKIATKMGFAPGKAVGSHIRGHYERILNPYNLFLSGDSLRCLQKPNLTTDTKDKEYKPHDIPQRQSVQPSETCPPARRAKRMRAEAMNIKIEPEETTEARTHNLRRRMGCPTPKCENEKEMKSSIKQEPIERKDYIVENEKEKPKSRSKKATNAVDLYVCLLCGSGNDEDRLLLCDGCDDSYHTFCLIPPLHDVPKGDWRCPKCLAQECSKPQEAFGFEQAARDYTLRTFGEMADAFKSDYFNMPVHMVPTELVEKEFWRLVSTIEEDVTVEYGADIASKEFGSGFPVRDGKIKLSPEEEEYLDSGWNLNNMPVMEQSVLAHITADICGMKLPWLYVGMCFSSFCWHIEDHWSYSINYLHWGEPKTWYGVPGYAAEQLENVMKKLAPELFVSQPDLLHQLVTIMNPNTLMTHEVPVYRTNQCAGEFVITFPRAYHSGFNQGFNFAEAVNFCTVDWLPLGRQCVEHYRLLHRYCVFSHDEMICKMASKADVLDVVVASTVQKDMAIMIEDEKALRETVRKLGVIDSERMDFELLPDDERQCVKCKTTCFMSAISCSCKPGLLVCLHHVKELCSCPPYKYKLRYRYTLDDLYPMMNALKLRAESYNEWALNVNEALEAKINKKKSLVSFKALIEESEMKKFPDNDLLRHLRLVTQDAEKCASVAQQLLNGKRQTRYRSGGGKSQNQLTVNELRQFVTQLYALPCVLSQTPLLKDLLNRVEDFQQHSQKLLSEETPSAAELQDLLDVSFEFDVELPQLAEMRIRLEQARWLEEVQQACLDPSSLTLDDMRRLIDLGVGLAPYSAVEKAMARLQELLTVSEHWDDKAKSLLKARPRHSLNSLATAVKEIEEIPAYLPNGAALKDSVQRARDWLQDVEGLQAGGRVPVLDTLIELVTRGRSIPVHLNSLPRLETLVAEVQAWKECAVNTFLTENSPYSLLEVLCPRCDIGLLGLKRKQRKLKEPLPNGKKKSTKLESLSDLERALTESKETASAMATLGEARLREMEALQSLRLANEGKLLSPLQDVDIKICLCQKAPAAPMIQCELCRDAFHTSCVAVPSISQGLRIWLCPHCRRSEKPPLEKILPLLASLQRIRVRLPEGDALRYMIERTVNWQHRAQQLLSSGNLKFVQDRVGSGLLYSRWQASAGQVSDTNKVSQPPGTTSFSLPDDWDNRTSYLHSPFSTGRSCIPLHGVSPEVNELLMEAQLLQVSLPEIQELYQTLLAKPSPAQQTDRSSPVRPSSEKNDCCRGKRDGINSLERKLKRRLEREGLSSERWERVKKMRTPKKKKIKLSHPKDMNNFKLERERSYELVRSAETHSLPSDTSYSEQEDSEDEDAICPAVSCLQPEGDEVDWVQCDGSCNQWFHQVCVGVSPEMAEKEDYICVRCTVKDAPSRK

IC50 (GASC1)	IC50 (JARID1A)	IC50 (PLU-1)	Compound
≤ 1000 nM	≤ 1000 nM	≤ 1000 nM	CCc1c(CO)[nH]c2c(C#N)cnn2c1=O [Compound I-21]
1000 to 10000 nM	≤ 1000 nM	≤ 1000 nM	CCc1c(COC)[nH]c2c(C#N)cnn2c1=O [Compound I-23]
≤ 1000 nM	≤ 1000 nM	≤ 1000 nM	CCOC(=O)c1[nH]c2c(C#N)cnn2c(=O)c1CC [Compound I-25]
≥ 50000 nM	1000 to 10000 nM	1000 to 10000 nM	CCc1c(C)n(C)c2c(C#N)cnn2c1=O [Compound I-29]
1000 to 10000 nM	≤ 1000 nM	1000 to 10000 nM	CCc1c(C(=O)NC)[nH]c2c(C#N)cnn2c1=O [Compound I-49]
1000 to 10000 nM	–	–	COc1c2c(nc3c(C#N)cnn13)CCCC2 [Compound I-54]
1000 to 10000 nM	–	–	N#Cc1cnn2c(=O)c3ccccc3[nH]c12 [Compound I-55]

From US10035801B2, “Pyrazolo compounds and uses thereof” (CONSTELLATION PHARMACEUTICALS, INC., priority 2013, dated 2018)
